Key:
Assay in all cases: relative viability (nuclei count vs DMSO), 5 days (fraction); higher = more cells survive
Sulindac + Dasatinib = compound: CC1=C(CC(=O)O)c2cc(F)ccc2/C1=C\c1ccc([S+](C)[O-])cc1 [Sulindac] + Cc1nc(Nc2ncc(C(=O)Nc3c(C)cccc3Cl)s2)cc(N2CCN(CCO)CC2)n1 [Dasatinib] (partner 0.075 µM)
How it was run: (§1)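 Lung cancer cell lines, seeded in 1536-well plates, were treated the following day by pin tool with a single drug or with five library-drug doses (not always all listed) in √10 steps on top of a fixed anchor-drug dose. Cells were fixed and nuclei stained in one step after 5 days, and nuclei were counted. Relative viability is the nuclei count for treated wells divided by that for vehicle wells, reported as medians of duplicate plates.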

[1] = compound: CN[C@@H]1C[C@H]2O[C@@](C)([C@@H]1OC)n1c3ccccc3c3c4c(c5c6ccccc6n2c5c31)C(=O)NC4 [Staurosporine] + Nc1nc2[nH]cc(CCc3ccc(C(=O)N[C@@H](CCC(=O)O)C(=O)O)cc3)c2c(=O)[nH]1 [Pemetrexed] (partner 0.2 µM)
How it was run: as §1

Staurosporine + OSI-027 = compound: CN[C@@H]1C[C@H]2O[C@@](C)([C@@H]1OC)n1c3ccccc3c3c4c(c5c6ccccc6n2c5c31)C(=O)NC4 [Staurosporine] + COc1cccc2cc(-c3nc([C@H]4CC[C@H](C(=O)O)CC4)n4ncnc(N)c34)[nH]c12 [OSI-027] (partner 0.5 µM)
How it was run: as §1

Sulindac + Alpelisib = compound: CC1=C(CC(=O)O)c2cc(F)ccc2/C1=C\c1ccc([S+](C)[O-])cc1 [Sulindac] + Cc1nc(NC(=O)N2CCC[C@H]2C(N)=O)sc1-c1ccnc(C(C)(C)C(F)(F)F)c1 [Alpelisib] (partner 2 µM)
How it was run: as §1

Row | Cell Line | relative viability (Sulindac + Dasatinib; first compound 0.08 µM) | relative viability (Sulindac + Dasatinib; first compound 0.253 µM) | relative viability (Sulindac + Dasatinib; first compound 0.8 µM) | relative viability (Sulindac + Dasatinib; first compound 2.53 µM) | relative viability (Sulindac + Dasatinib; first compound 8 µM) | relative viability ([1]; first compound 0.005 µM) | relative viability ([1]; first compound 0.01581 µM) | relative viability ([1]; first compound 0.05 µM) | relative viability ([1]; first compound 0.1581 µM) | relative viability ([1]; first compound 0.5 µM) | relative viability (Staurosporine + OSI-027; first compound 0.005 µM) | relative viability (Staurosporine + OSI-027; first compound 0.01581 µM) | relative viability (Staurosporine + OSI-027; first compound 0.05 µM) | relative viability (Staurosporine + OSI-027; first compound 0.5 µM) | relative viability (Sulindac + Alpelisib; first compound 0.08 µM) | relative viability (Sulindac + Alpelisib; first compound 0.253 µM) | relative viability (Sulindac + Alpelisib; first compound 2.53 µM) | relative viability (Sulindac + Alpelisib; first compound 8 µM) | relative viability (Staurosporine + OSI-027; first compound 0.1581 µM) | relative viability (Sulindac + Alpelisib; first compound 0.8 µM)
1 | NCI-H1975 | 0.411 | 0.315 | 0.345 | 0.353 | 0.375 | 0.246 | 0.185 | 0.184 | 0.128 | 0.118 | 0.573 | 0.144 | 0.187 | 0.0826 | 0.73 | 0.757 | 0.674 | 0.694 | – | –
2 | NCI-H2023 | 0.91 | 0.726 | 0.424 | 0.567 | 0.617 | 0.183 | 0.154 | 0.0933 | 0.0756 | 0.0692 | 0.185 | 0.101 | 0.084 | 0.0498 | 0.683 | 0.572 | 0.591 | 0.587 | 0.0704 | 0.472
3 | ChaGo-K-1 | 0.597 | 0.618 | 0.64 | 0.587 | 0.651 | 0.262 | – | 0.251 | 0.141 | 0.163 | 0.678 | 0.203 | 0.553 | 0.118 | – | – | – | – | 0.135 | –
4 | COR-L 105 | 0.307 | 0.42 | 0.305 | 0.291 | 0.393 | 0.655 | 0.554 | 0.52 | 0.428 | 0.293 | 0.279 | 0.173 | 0.269 | 0.183 | 0.826 | 0.818 | 0.949 | 1.29 | 0.266 | 0.673
5 | NCI-H2170 | 0.631 | 0.586 | 0.659 | 0.508 | 0.741 | 0.247 | – | 0.243 | 0.101 | 0.173 | 0.815 | – | 0.576 | 0.0943 | 1.03 | 0.904 | 0.835 | 0.912 | 0.175 | 0.613
6 | A549 | – | – | – | – | – | – | – | – | – | – | – | – | – | – | 0.866 | 1.04 | 0.758 | 0.87 | – | –
7 | NCI-H460 | 0.616 | 0.461 | 0.482 | 0.489 | 0.658 | 0.065 | 0.0547 | 0.0426 | 0.0415 | 0.0101 | 0.47 | 0.303 | 0.329 | 0.006 | 0.82 | 0.492 | 0.477 | 0.709 | 0.0118 | –
8 | NCI-H1993 | 0.569 | 0.516 | 0.543 | 0.581 | 0.575 | 0.631 | 0.428 | 0.539 | 0.332 | 0.267 | 0.551 | 0.445 | 0.614 | 0.461 | 0.664 | 0.674 | 0.753 | 0.707 | 0.399 | 0.695
9 | Calu-6 | – | – | – | – | – | – | – | – | – | – | – | – | – | – | 1.06 | 1.09 | 1.08 | 1.23 | – | 0.774
10 | SW 900 | – | 0.582 | – | 0.524 | 0.623 | 0.404 | 0.356 | 0.296 | 0.161 | 0.115 | 0.334 | 0.182 | 0.204 | 0.0798 | – | – | – | – | 0.108 | –
11 | NCI-H1623 | 0.552 | 0.444 | 0.525 | 0.501 | 0.519 | – | – | – | – | – | 0.517 | 0.542 | 0.547 | 0.304 | – | – | – | – | 0.441 | –

Source: the supplement of paper PMC10307832
